According to PubChem BioAssay AID463229 (Broad Institute, 2010):

The molecules below were run on INS-1E rat beta cells, no cytokines, CellTiter-Glo ATP, 48 h (assay: cytokine-free beta-cell viability effect – INS-1E rat cells, ATP luminescence, cherry pick, counter-screen for beta-cell apoptosis protection project, dose response (AID 463229)).
CC1=NNC(=O)/C1=C\c1cn(-c2ccccc2)nc1-c1ccc(Cl)cc1 was tested, and the AC50 was 10.9 µM. For COc1cccc(/C=N/Nc2ncc(C(F)(F)F)cc2Cl)c1O, the AC50 was 4.26 µM. With CN1/C(=C\C=N\NC(=O)c2ccc(O)cc2)C(C)(C)c2ccccc21 the AC50 was 7.5 µM. In the case of COC(=O)c1ccccc1NC(=O)c1nc(S(=O)(=O)Cc2ccccc2)ncc1Cl, the AC50 is reported as 7.98 µM. Molecule CCC(C)Sc1cccc(-c2nc3ccc(C)cn3c2NCc2ccccc2)c1 (centres undefined) has an AC50 of 9.3 µM. With Cn1c2c(c(=O)n(C)c1=O)C(C(F)(F)F)(C(F)(F)F)N=C(c1ccc(Cl)cc1)N2 the AC50 was 0.56 µM. COc1cccc(C(=O)Oc2c(CN3CCOCC3)cc(Cl)c3cccnc23)c1 showed an AC50 of 14.3 µM. For C=C1C(=O)O[C@H]2C[C@@H](C)[C@@H]3C=CC(=O)[C@@]3(C)C[C@H]12, the AC50 was 7.64 µM. Molecule CC(C)C(=O)NC(c1ccccc1)c1cc([N+](=O)[O-])c2cccnc2c1O (centres undefined) has an AC50 of 10.6 µM. Nc1c(N(CCC2=CCCCC2)C(=O)COc2ccc(F)cc2)c(=O)[nH]c(=O)n1Cc1ccccc1 gave an AC50 of 4.49 µM. Cc1sc2ncnc(NCc3cccs3)c2c1C was tested, and the AC50 was 6.4 µM. Work on C#CC[N+](C)(C)CCCCCCCCCCCC yielded an AC50 of 6.1 µM. Oc1ccc(CCNc2ncnc3ccc(Cl)cc23)cc1 gave an AC50 of 5.59 µM. For COc1ccc(C(=O)c2c(C(F)(F)F)oc3c2C(=O)c2ccccc2C3=O)cc1, the AC50 was 6.74 µM. Cc1[nH]c2ccccc2c1CN1CCN(c2ccccn2)CC1 showed an AC50 of 5.1 µM. Work on CCN(CC)S(=O)(=O)c1ccc(N/N=C/c2cc(OC)ccc2O)nc1 yielded an AC50 of 4.24 µM. For O=C(CNc1ccc(F)cc1)N/N=C/c1c(O)ccc2ccccc12, the AC50 was 19.5 µM. With Cc1ccc2nc(C)c(CN3CCN(c4ccc([N+](=O)[O-])cc4Cl)CC3)n2c1 the AC50 was 2.92 µM. Molecule CCN(CC)c1ccc(/C=N/Nc2nc(C)cc(C)n2)c(O)c1 has an AC50 of 15.8 µM. With CCCSc1nsc(NC(=O)Nc2ccc(F)cc2F)n1 the AC50 was 6.99 µM. With COCCNC(=O)CSC1=N/C(=C/c2ccc(Cl)c(Cl)c2)C(=O)N1c1ccccc1F the AC50 was 8.25 µM. CC(=O)Nc1ccccc1OCC(=O)c1cc(C)n(Cc2cccs2)c1C gave an AC50 of 1.01 µM. Work on N#Cc1ccc(-c2csc(NNC(=O)c3ccc(Br)cc3)n2)cc1 yielded an AC50 of 15.6 µM. For Cn1cc(/C=C/c2cc[n+](C)cc2)c2cc(Cl)ccc21, the AC50 was 4.85 µM. Work on COc1ccc(-c2cc(-c3nc4ccccn4c3NCc3ccccc3)ccc2OC)cc1 yielded an AC50 of 0.992 µM. For CS(=O)(=O)c1ncc(Cl)c(C(=O)Nc2ccc(OC(F)F)cc2)n1, the AC50 was 11.6 µM. For CC1=C(C)/C(=N\OS(=O)(=O)c2ccccc2)C=CC1=O, the AC50 was 4.13 µM. Work on O=C(c1ccc2c(c1)[nH]c(=S)n1c3ccccc3nc21)N1CCN(c2cccc(Cl)c2)CC1 yielded an AC50 of 14.5 µM. In the case of O=C(Nc1nc(-c2ccccn2)cs1)c1ccc(Br)s1, the AC50 is reported as 6.75 µM. Molecule Cn1c(SCC(=O)N/N=C/c2ccc([N+](=O)[O-])s2)nnc1-c1ccccc1 has an AC50 of 5.11 µM. Molecule Cc1c(C(=O)N/N=C/c2c(O)ccc3ccccc23)nnn1-c1nonc1N has an AC50 of 2.18 µM. For Cc1cc(C)c(S(=O)(=O)/N=C2\C=C(Nc3ccc(C(=O)O)cc3)C(=O)c3ccccc32)c(C)c1, the AC50 was 5.39 µM. CN(C)c1ccc(/C=C/c2ccc3ccccc3n2)cc1 was tested, and the AC50 was 2.28 µM. In the case of CCOc1ccc(Nc2c3ccccc3nc3ccccc23)cc1, the AC50 is reported as 7.36 µM. With Cc1[nH]nc2nc(SCC(=O)NCCC3=CCCCC3)n(-c3ccc(Br)cc3)c(=N)c12 the AC50 was 6.36 µM. Cc1cc(N/N=C/c2ccc(O)cc2O)nc(-n2nc(C)cc2C)n1 showed an AC50 of 6.67 µM. In the case of CCN(CC)C(=O)c1ccc(S(=O)(=O)N2CCC(c3nc4ccccc4s3)CC2)cc1, the AC50 is reported as 7.7 µM. O=[N+]([O-])c1ccc(-c2nc(C(Cl)Cl)c3ccccc3n2)cc1 showed an AC50 of 1.66 µM. C/C(=N\NC(=O)C(=O)Nc1cccc(Cl)c1)c1ccncc1 showed an AC50 of 6.53 µM. In the case of COCCN(C(=O)COC(=O)C1CCC(C(C)(C)C)CC1)c1c(N)n(Cc2ccccc2)c(=O)[nH]c1=O (centres undefined), the AC50 is reported as 2.17 µM. In the case of CCN1c2ccccc2N(C)C1(C)c1ccccc1 (centres undefined), the AC50 is reported as 4.56 µM. Cc1cccc(NC2=C/C(=N/S(=O)(=O)c3cccs3)c3ccccc3C2=O)c1 showed an AC50 of 3.97 µM. CC(C)(C)c1cc(C(=O)N/N=C/c2ccccc2O)n(-c2ccccc2)n1 was tested, and the AC50 was 10.1 µM. In the case of CCOc1cc(/C=C2\COc3ccccc3C2=O)cc(Br)c1OCC(=O)N(C)C, the AC50 is reported as 11.1 µM. Molecule Cc1ncc(CO)c(/C=N/NC(=O)c2cc3c(s2)CCCC3)c1O has an AC50 of 5.92 µM. In the case of C=C[C@H](Cc1ccccc1)N(Cc1ccccc1)S(=O)(=O)N(Cc1ccccc1)[C@H](C=C)Cc1ccccc1, the AC50 is reported as 4.79 µM. Molecule COc1cccc(/C=N/NC(=O)C(=O)Nc2ccccc2OC(F)(F)C(F)F)c1O has an AC50 of 6.44 µM. Work on N/C(=N\OC(=O)c1cccc(Cn2cc(C(F)(F)F)ccc2=O)c1)c1ccccc1 yielded an AC50 of 7.71 µM. Cc1onc(-c2ccccc2)c1C(=O)NC(=S)NNC(=O)c1ccccc1O gave an AC50 of 18.4 µM. COc1ccc(C(NC(C)=O)c2cc(Cl)c3cccnc3c2O)cc1OC (centres undefined) was tested, and the AC50 was 7.62 µM. Work on Oc1cccc2ccc(Nc3ccccn3)nc12 yielded an AC50 of 2.27 µM. O=C(Nc1ccc(Cl)c(Cl)c1)Nc1nnc(CC2=CCCCC2)s1 showed an AC50 of 5.75 µM. With COc1cc(/C=N/NC(=O)c2cccnc2)ccc1OC(=O)c1cc(OC)c(OC)c(OC)c1 the AC50 was 2.51 µM. Molecule Cc1cc(-c2ccccc2)cc(C)[n+]1Cc1ccccc1 has an AC50 of 0.667 µM. Work on COc1cccc(CN2CCC(N(CCc3ccccc3)Cc3ccccc3)CC2)c1OC yielded an AC50 of 14.7 µM. COc1ccc(S(=O)(=O)/N=C2\C=C(Nc3ccc(O)cc3)C(=O)c3ccccc32)cc1 showed an AC50 of 1.65 µM. For COc1cccc2sc(Nc3nc(-c4ccccn4)cs3)nc12, the AC50 was 3.75 µM. With Cc1ccn2c(Nc3ccccc3)c(-c3ccccn3)nc2c1 the AC50 was 7.4 µM. For CCn1cc(C(=O)O)c(=O)c2cc(F)c(N/N=C/c3ccccc3[N+](=O)[O-])cc21, the AC50 was 7.62 µM. In the case of C#CCOCCOCCOCCNc1nc(N2CCN(C(=O)CCCCCCCCCCNC(=O)[C@H](CCCCN)n3cc(C)nn3)CC2)nc(N2CCN(C(=O)CCCCCCCCCCNC(=O)[C@@H]([C@H](C)CC)n3cc(CCCCCN)nn3)CC2)n1, the AC50 is reported as 6.78 µM. Cc1ccc(NC(=S)N/N=C/c2ccc([N+](=O)[O-])s2)cc1 gave an AC50 of 6.79 µM. Molecule CC(=O)Nc1ccc(S(=O)(=O)NC2=C(N3CCN(c4ccc(F)cc4)CC3)C(=O)c3ccccc3C2=O)cc1 has an AC50 of 7.51 µM. In the case of Cc1[nH]n(-c2ccccc2)c(=O)c1/C=N\NC(=O)C1COc2ccccc2O1 (centres undefined), the AC50 is reported as 14 µM. Molecule COc1ccc(C(=O)N/N=C/c2cc(Br)ccc2O)cc1OC has an AC50 of 7.2 µM. In the case of COc1cnc(-c2ccccn2)nc1N(C)C, the AC50 is reported as 21.7 µM. O=C(CCl)N(c1ccccc1)C1CCCCC1 gave an AC50 of 5.56 µM. Work on O=C(Nc1ccc(OC(F)(F)F)cc1)Nc1cccc([N+](=O)[O-])c1 yielded an AC50 of 3.8 µM. For O=C(Nc1ccc(OC(F)F)cc1)Nc1cccc(C(F)(F)F)c1, the AC50 was 7.65 µM. For COc1ccc(NC(=O)/C(Cl)=C(/Cl)S(=O)Cc2ccc(C)cc2)cn1 (centres undefined), the AC50 was 1.3 µM. For Oc1ccccc1/C=N/Nc1ncc(Br)cn1, the AC50 was 19.7 µM. In the case of Nc1ccc(Br)cc1-c1nc2ccccc2[nH]c1=O, the AC50 is reported as 1.32 µM. In the case of CCCCOc1ccc(C(=O)NNC(=S)NC(=O)CC)cc1, the AC50 is reported as 14.3 µM. For NC(=S)N/N=C/c1ccc(C23CC4CC(CC(C4)C2)C3)cc1, the AC50 was 12.2 µM. Oc1c(CN2CCN(c3ccc(F)cc3)CC2)cc(Cl)c2cccnc12 was tested, and the AC50 was 4.27 µM. With Cc1cccc(N=Nc2ccc(O)c3ncccc23)c1 the AC50 was 5 µM. Work on O=C(N/N=C/c1cccnc1)c1ccc(NC(=O)C(c2ccccc2)c2ccccc2)cc1 yielded an AC50 of 0.848 µM. Molecule O=C(N/N=C/c1cc(Br)ccc1O)C(=O)Nc1ccccc1OC(F)(F)C(F)F has an AC50 of 6.77 µM. For Cc1cc(N/N=C/c2ccccc2[N+](=O)[O-])nc(-n2nc(C)cc2C)n1, the AC50 was 12.2 µM. Cc1nc2c(-c3ccc(Cl)cc3)c(C)[nH]n2c(=O)c1Cc1ccccc1 was tested, and the AC50 was 5.46 µM. CN(C)c1cc[n+](Cc2c(Cl)cccc2Cl)cc1 gave an AC50 of 6.3 µM. With CCC(C)c1ccc(NC(=S)NC2CCN(Cc3ccccc3)CC2)cc1 (centres undefined) the AC50 was 10.4 µM. Molecule CC(=O)c1cn(CCOc2cc(C)ccc2C)c2ccccc12 has an AC50 of 4.67 µM. Brc1ccc(N/N=C(/N=Nc2nn[nH]n2)c2ccccc2)cc1 gave an AC50 of 3.51 µM. CCOC(=O)c1ccc(NC(=O)Cn2cnc3cc(C)c(C)cc32)cc1 was tested, and the AC50 was 5.23 µM. CCCCCCc1cc2cc(-c3nnc(-c4ccccc4O)o3)c(=O)oc2cc1O gave an AC50 of 7.66 µM. CCN(CC)c1ccc(/C=N/NC(=O)c2ccco2)c(O)c1 was tested, and the AC50 was 2.11 µM. O=[N+]([O-])c1ccc(O)c(/C=N/Nc2ccccn2)c1 gave an AC50 of 1.84 µM. CCC(C)Nc1nc(-c2ccccn2)nc2ccccc12 (centres undefined) gave an AC50 of 9.01 µM. For Cc1sc2ncnc(N3CCN(S(=O)(=O)c4ccc(C(C)(C)C)cc4)CC3)c2c1C, the AC50 was 4.17 µM. For O=C1C=C(N2CCCCC2)c2ccccc2C1=O, the AC50 was 10.6 µM. Work on COC(=O)c1c(C)oc2ccc(N(C(=O)c3ccncc3)S(=O)(=O)c3ccc4ccccc4c3)cc12 yielded an AC50 of 17.9 µM. Cc1nn(C)c(C)c1CN(C)S(=O)(=O)c1ccc2ccccc2c1 showed an AC50 of 3.02 µM. In the case of CC(C)(C)C(=O)NC(=S)NNC(=O)c1ccc(-c2ccccc2)cc1, the AC50 is reported as 5.71 µM. O=C1/C(=N\S(=O)(=O)c2cccs2)C([n+]2cccc(Cc3ccccc3)c2)=C([O-])c2ccccc21 was tested, and the AC50 was 7.28 µM. COc1ccc(CCNC(=O)c2cc3c(=O)n4cccc(C)c4nc3n(Cc3ccco3)c2=N)cc1OC gave an AC50 of 9.18 µM. CC1CCC(C(C)C)C(OC(=O)Cn2c(-c3ccc(F)cc3)[n+](C)c3ccccc32)C1 (centres undefined) was tested, and the AC50 was 4.49 µM. Molecule O=C(Nc1cccc(NC(=O)c2cc([N+](=O)[O-])ccc2Cl)n1)c1cc([N+](=O)[O-])ccc1Cl has an AC50 of 14.8 µM. With COc1ccccc1/C=C/CN1CCC(n2nccc2NC(=O)CCc2ccccc2)CC1 the AC50 was 8.85 µM. For COc1cc2cc(C(=O)N3CCOCC3)cc(-c3ccc(C)cc3)c2cc1OC, the AC50 was 5.15 µM. With O=C1C(Cl)=C(NCCN2CCCCC2)C(=O)c2ccccc21 the AC50 was 14.1 µM. COc1ccc2c(c1)c(/C=N/Nc1nc3ccccc3[nH]1)c(C)n2C showed an AC50 of 14.7 µM. Molecule COc1cc(OC)c(NC2=CC(=O)C(=O)c3ccccc32)cc1Cl has an AC50 of 8.07 µM. For CCOc1ccc(-c2cc(C(=O)NCCCn3ccnc3)c3cc(Br)ccc3n2)cc1, the AC50 was 12.6 µM. CCCCCc1ccc(OCCCC[n+]2ccc(C)cc2)c(CCCCC)c1 showed an AC50 of 2.34 µM. COc1cnc(-c2ccccn2)nc1Oc1ccc(C(C)(C)C)cc1 gave an AC50 of 13.7 µM. Work on Cc1cc(C)c2nc(NNC(=O)c3ccc(S(=O)(=O)N4CCCC(C)C4)cc3)sc2c1 (centres undefined) yielded an AC50 of 4.52 µM. O=C(NCc1cccnc1)/C(=C/c1ccc(-c2ccc(Cl)cc2)o1)S(=O)(=O)c1ccccc1 showed an AC50 of 6.93 µM. For CCCCCCCCCCn1ccc(=N)cc1, the AC50 was 0.543 µM. With CN1c2ccccc2N(C)C1(C)c1ccccc1 the AC50 was 0.604 µM.
